Legend:
20S proteasome = details: localize inside the 20S subunit along the active proteolytic site; ref [14], [15]; cited from earlier work
[1] = biological target: h20S proteasome, chymotrypsin-like activity (Homo sapiens, UniProt P28074); experiment: Kinetic analysis of proteasome chymotrypsin-like activity with or without Aβ; format: biochemical; details: pH 7.8, 37°C; for Vmax: LLVY-AMC 0–200 µM, 40 ng h20S in 100 µL

Row | Substance | effect on chymotrypsin-like activity of the proteasome (20S proteasome) | Vmax ([1]; 0 µM Aβ(1–42)) | Vmax ([1]; 1 µM oligomeric Aβ(1–42)) | Vmax ([1]; 5 µM oligomeric Aβ(1–42)) | Vmax, lower end over all Aβ concentrations ([1]; oligomeric Aβ(1–42) 0–5 µM, Table 1: 0 and 0.5 µM Aβ, LLVY-AMC) [µM/min] | Vmax, upper end over all Aβ concentrations ([1]; oligomeric Aβ(1–42) 0–5 µM, Table 1: 5 µM Aβ, LLVY-AMC) [µM/min]
1 | Aβ(1–40): Aβ(1–40) peptides | inhibit the chymotrypsin-like activity of the proteasome | – | – | – | – | –
2 | N-Succinyl-Leu-Leu-Val-Tyr-AMC [LLVY-AMC] | – | 3.1 ± 0.1 x10^−2µM/min | 3.5 ± 0.2 x10^−2µM/min | 3.7 ± 0.3 x10^−2µM/min | 0.031 ± 0.001 | 0.037 ± 0.003

Reference: publication PMC2992454 (ACS chemical neuroscience, 2010)
